Patent publication US11000033B2, “Ketone or oxime compound, and herbicide” (NISSAN CHEMICAL CORPORATION, priority 2014, dated 2021)

Key:
Assay type in all cases: in vivo
Avena fatua = test: Test Example 4: herbicidal effect by soil treatment (symbol I)
Procedure, shortened: (§1)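 Seeds were sown in sterilized diluvial soil, covered with about 1.5 cm of soil, and the soil surface was sprayed with a water-diluted emulsion of the compound at a predetermined rate. Plants grew in a greenhouse at 25° C. to 30° C.; effects were scored visually 3 weeks after application.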

rapeseed = test: Test Example 4: effect on crop by soil treatment (symbol g); details: for g: rapeseed, effect on crop grade: application herbicide amount 320 g/ha
Procedure, shortened: (§2)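 Diluvial soil (sterilized) in boxes; seeds placed spot-wise alongside weed species; ~1.5 cm covering soil. Greenhouse, 25–30° C.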

Alopecurus myosuroides = test: Test Example 4: herbicidal effect by soil treatment (symbol J)
Procedure, shortened: as §1

Amaranthus retroflexus = test: Test Example 4: herbicidal effect by soil treatment (symbol N)
Procedure, shortened: as §1

soybean = test: Test Example 4: effect on crop by soil treatment (symbol d); details: for d: soybean, effect on crop grade: application herbicide amount 320 g/ha
Procedure, shortened: as §2

[1] = tested on: Echinochloa oryzacola Vasing.; test: Test Example 1: herbicidal activity, application before weed generation in submerged conditions (symbol A); details: application herbicide amount 320 g/ha
Procedure, shortened: (§3)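 Mixed weed seeds sown in alluvial soil under 4 cm of water, with rice seedlings at the 2.5-leaf stage added. Same-day treatment: emulsion diluted to a set herbicide amount onto the water. Three weeks at 25–30 °C, then graded on a six-step scale.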

Digitaria ciliaris = test: Test Example 5: herbicidal effect by foliage application, plastic box (symbol F); details: 320 g/ha, 3 weeks after application
Procedure, shortened: (§4)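 Emulsion formulation, diluted with water to the intended rate, was applied uniformly to leaves by small sprayer. Recipients were 14-day greenhouse-grown seedlings (25° C. to 30° C.). Assessment followed at 3 weeks.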

beet = test: Test Example 4: effect on crop by soil treatment (symbol f); details: for f: beet, effect on crop grade: application herbicide amount 320 g/ha
Procedure, shortened: as §2

[2] = tested on: directly sowed rice plant; test: Test Example 3: effect on crop by foliage application, Wagner pot (symbol b); details: application herbicide amount 320 g/ha
Procedure, shortened: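 Steps: fill a 1/10000-are Wagner pot with alluvial soil; add water and mix to submerge at 0.1–0.5 cm depth; sow rice plus Echinochloa crus-galli var. crus-galli, Leptochloa chinensis and Cyperus difformis; grow in a 25–30 °C greenhouse.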

Abutilon theophrasti = test: Test Example 4: herbicidal effect by soil treatment (symbol M)
Procedure, shortened: as §1

transplanted rice plant = test: Test Example 1: effect on crop, application before weed generation in submerged conditions (symbol a); details: application herbicide amount 320 g/ha
Procedure, shortened: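 Rice at 2.5 leaf stage transplanted into submerged soil (4 cm depth) sown with three weed species; herbicide applied before weed emergence.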

Monochoria vaginalis = test: Test Example 2: herbicidal activity, application during weed generation in submerged conditions (symbol C); details: Table 23; application herbicide amount 320 g/ha; grade 0-5 by criteria of Test Example 1
Procedure, shortened: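 Treatment timing was the one- to two-leaf stage, with diluted emulsifiable compound dropped onto the paddy water (depth 4 cm) over alluvial soil. All three species grew from a mixed sowing in a 25° C. to 30° C. greenhouse. Injury was judged by eye 3 weeks on.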

Scirpus juncoides = test: Test Example 1: herbicidal activity, application before weed generation in submerged conditions (symbol B); details: application herbicide amount 320 g/ha
Procedure, shortened: as §3

[3] = tested on: Echinochloa crus-galli var. crus-galli; test: Test Example 5: herbicidal effect by foliage application, plastic box (symbol H); details: 320 g/ha, 3 weeks after application
Procedure, shortened: as §4

[4] = application herbicide amount 320 g/ha

| Compound | I: Avena fatua, herbicidal effect grade (Avena fatua; [4]) | g: rapeseed, effect on crop grade (rapeseed) | J: Alopecurus myosuroides, herbicidal effect grade (Alopecurus myosuroides; [4]) | N: Amaranthus retroflexus, herbicidal effect grade (Amaranthus retroflexus; [4]) | d: soybean, effect on crop grade (soybean) | Herbicidal effect grade, A: Echinochloa oryzacola Vasing. [1] | F: Digitaria ciliaris, herbicidal effect grade (Digitaria ciliaris) | f: beet, effect on crop grade (beet) | effect on crop b (directly sowed rice plant), grade 0-5 [2] | M: Abutilon theophrasti, herbicidal effect grade (Abutilon theophrasti; [4]) | Effect grade on crop, a: transplanted rice plant (transplanted rice plant) | Herbicidal effect grade, C: Monochoria vaginalis (Monochoria vaginalis) | Herbicidal effect grade, B: Scirpus juncoides (Scirpus juncoides) | H: Echinochloa crus-galli var. crus-galli, herbicidal effect grade [3] | further results |
| --- | --- | --- | --- | --- | --- | --- | --- | --- | --- | --- | --- | --- | --- | --- | --- |
| CC#Cc1cc(C)c(C2=C(O)CC(CC(C)=NOC)C2=O)c(C)c1 (mixture of isomers) [6-009] | 4 (Herbicidal ratio of 70% or higher and lower than 90%) | 4 (Herbicidal ratio of 70% or higher and lower than 90%) | 5 (Herbicidal ratio of 90% or more (almost completely withered)) | 5 (Herbicidal ratio of 90% or more (almost completely withered)) | 0 (Herbicidal ratio of 5% or lower (almost no effect)) | 5 (Herbicidal ratio of 90% or more (almost completely withered)) | 5 (Herbicidal ratio of 90% or more (almost completely withered)) | 2 (Herbicidal ratio of 20% or higher and lower than 40%) | 5 (Herbicidal ratio of 90% or more (almost completely withered)) | 5 (Herbicidal ratio of 90% or more (almost completely withered)) | 3 (Herbicidal ratio of 40% or higher and lower than 70%) | 0 (Herbicidal ratio of 5% or lower (almost no effect)) | 2 (Herbicidal ratio of 20% or higher and lower than 40%) | 5 (Herbicidal ratio of 90% or more (almost completely withered)) | – |
| CON=C(C)CC1CC(OC(=O)Cc2ccc(OC)cc2)=C(c2c(C)cc(C)cc2C)C1=O (centres unmarked) [1-156] | – | – | – | – | – | 5 (Herbicidal ratio of 90% or more (almost completely withered)) | 5 (Herbicidal ratio of 90% or more (almost completely withered)) | – | 5 (Herbicidal ratio of 90% or more (almost completely withered)) | – | 5 (Herbicidal ratio of 90% or more (almost completely withered)) | 3 (Herbicidal ratio of 40% or higher and lower than 70%) | 5 (Herbicidal ratio of 90% or more (almost completely withered)) | 5 (Herbicidal ratio of 90% or more (almost completely withered)) | I: Avena fatua, herbicidal effect grade (Avena fatua; 320 g/ha): 4 (Herbicidal ratio of 70% or higher and lower than 90%); g: rapeseed, effect grade on crop (rapeseed; 320 g/ha): 4 (Herbicidal ratio of 70% or higher and lower than 90%); J: Alopecurus myosuroides, herbicidal effect grade (Alopecurus myosuroides; 320 g/ha): 5 (Herbicidal ratio of 90% or more (almost completely withered)); N: Amaranthus retroflexus, herbicidal effect grade (Amaranthus retroflexus; 320 g/ha): 5 (Herbicidal ratio of 90% or more (almost completely withered)); d: soybean, effect grade on crop (soybean; 320 g/ha): 0 (Herbicidal ratio of 5% or lower (almost no effect)); f: beet, effect grade on crop (beet; 320 g/ha): 1 (Herbicidal ratio of 5% or higher and lower than 20%); M: Abutilon theophrasti, herbicidal effect grade (Abutilon theophrasti; 320 g/ha): 5 (Herbicidal ratio of 90% or more (almost completely withered)) |
| COCC(=O)CC1CC(O)=C(c2c(C)cc(C)cc2C)C1=O (centres unmarked) [2-007] | 0 (Herbicidal ratio of 5% or lower (almost no effect)) | 4 (Herbicidal ratio of 70% or higher and lower than 90%) | 3 (Herbicidal ratio of 40% or higher and lower than 70%) | 0 (Herbicidal ratio of 5% or lower (almost no effect)) | 0 (Herbicidal ratio of 5% or lower (almost no effect)) | 3 (Herbicidal ratio of 40% or higher and lower than 70%) | 1 (Herbicidal ratio of 5% or higher and lower than 20%) | 0 (Herbicidal ratio of 5% or lower (almost no effect)) | 5 (Herbicidal ratio of 90% or more (almost completely withered)) | 0 (Herbicidal ratio of 5% or lower (almost no effect)) | 4 (Herbicidal ratio of 70% or higher and lower than 90%) | 0 (Herbicidal ratio of 5% or lower (almost no effect)) | 2 (Herbicidal ratio of 20% or higher and lower than 40%) | 1 (Herbicidal ratio of 5% or higher and lower than 20%) | – |
| CON=C(C)CC1CC(O)=C(c2c(C)cc(-c3ccccc3)cc2C)C1=O (centres unmarked) [6-015] | 0 (Herbicidal ratio of 5% or lower (almost no effect)) | 4 (Herbicidal ratio of 70% or higher and lower than 90%) | 5 (Herbicidal ratio of 90% or more (almost completely withered)) | 5 (Herbicidal ratio of 90% or more (almost completely withered)) | 0 (Herbicidal ratio of 5% or lower (almost no effect)) | 5 (Herbicidal ratio of 90% or more (almost completely withered)) | 5 (Herbicidal ratio of 90% or more (almost completely withered)) | 0 (Herbicidal ratio of 5% or lower (almost no effect)) | 5 (Herbicidal ratio of 90% or more (almost completely withered)) | 3 (Herbicidal ratio of 40% or higher and lower than 70%) | 5 (Herbicidal ratio of 90% or more (almost completely withered)) | 5 (Herbicidal ratio of 90% or more (almost completely withered)) | 5 (Herbicidal ratio of 90% or more (almost completely withered)) | 5 (Herbicidal ratio of 90% or more (almost completely withered)) | – |
